Consider two molecules from patent US8420595B2, “Methods for treating acute acoustic trauma” (Oklahoma Medical Research Foundation, priority 2006, dated 2013).

This assay deals with AAT-induced hearing loss (six hours of 4 kHz octave band noise at 105 dB SPL). As to the kind of experiment: Acute acoustic trauma (AAT) in chinchillas, hearing levels by auditory brainstem response (ABR). In kind it is in vivo, chinchilla. As to conditions: every tested frequency. As for the experimental part:
With reference first to Tables 1-A, 1-B and 1-C, tests were conducted using six chinchillas for each experimental group and the control group. In these tests, the animals were exposed to AAT generated by six hours of noise exposure at 4 kHz octave band noise at 105 dB SPL. Treatments using 4-OHPBN (dosages of 10, 20, 50, and 75 mg/kg), ALCAR (dosages of 0, 20, 30, and 50 mg/kg), and NAC (50, 100, and 200 mg/kg) were given four hours after the AAT by intraperitoneal injection. Hearing levels were determined by auditory brainstem response (ABR) prior to the AAT event (baseline) and at 21 days post injection.
Table 3 depicts the results provided by treatment with a preferred embodiment of the current invention. In this embodiment, the AAT treatment therapy utilized a combination of 4-OHPBN (50 mg/kg) with NAC (100 mg/kg). Treatment consisted of intraperitoneal injection of the combined 4-OHPBN and NAC four hours after the AAT event. In this instance, six chinchillas were used for each test group. The animals were exposed to an AAT event produced by six hours of noise exposure at 4 kHz octave band noise at 105 dB SPL. Hearing levels reported in Table 3 were determined using the ABR method prior to the AAT event and 21 days post AAT. […] As indicated by the * each result was determined to be statistically significant and resulting from the treatment with the combination of 4-OHPBN and NAC. Statistical analysis was carried out using a one way ANOVA procedure and Post hoc test. While the above tests were conducted at the specified dosages, effective results should be realized at dosages between about 5 mg/kg and about 300 mg/kg for NAC and about 5 mg/kg and about 150 mg/kg for 4-OHPBN when NAC and 4-OHPBN are used in combination.
Table 4 depicts the results provided by treatment with another preferred embodiment of the current invention. The test for this embodiment utilized three test groups consisting of six chinchillas each. The chinchillas were exposed to an AAT event generated by a 105 dB narrow-band noise centered at 4 kHz for 6 hours. In this embodiment, the AAT treatment therapy utilized a combination of 4-OHPBN (20 mg/kg) with NAC (50 mg/kg) and ALCAR (20 mg/kg). Treatment consisted of intraperitoneal injection of the combined 4-OHPBN, NAC and ALCAR beginning four hours after noise exposure with injections repeated twice daily for the next two days. The control group was injected with carrier solution. Hearing levels reported in Table 4 were determined using the ABR method prior to the AAT event, immediately after the AAT event and 21 days after the AAT event.
Mean ABR threshold shifts were obtained and statistically analyzed using a two-way ANOVA procedure.

`CC(=O)O[C@H](CC(=O)[O-])C[N+](C)(C)C` [ALCAR, Acetyl-L-Carnitine]: the “p (two way ANOVA and Post hoc test) vs control, ABR hearing level” value was under 0.05 (ALCAR 30 mg/kg i.p. four hours after AAT) and under 0.05 (ALCAR 50 mg/kg i.p. four hours after AAT).

In the case of `CC(=O)N[C@@H](CS)C(=O)O` [NAC, N-acetylcysteine], the “p (two way ANOVA and Post hoc test) vs control, ABR hearing level” value (NAC 100 mg/kg i.p. four hours after AAT) is reported as under 0.05; the “p (two way ANOVA and Post hoc test) vs control, ABR hearing level” value (NAC 200 mg/kg i.p. four hours after AAT) is under 0.05.
